In patent publication US9593155B2, “Oxyntomodulin analogs” (priority 2009, dated 2017):
Read-outs that look alike come from different tables or passages of the source. Blank lines part the entries; values can stand above or below the molecule they belong to. *1 amine or outer side, *2 acyl side, *3 side chain or, on linkers, in order; H or OH if unused. Where a SMILES comes first, the peptide text is derived from it. Bridges are numbered along the chain shown (N, C = ends). Where no end group is shown, it is not given here. Side-chain parts run from the residue outwards. [ ]: non-standard residue; d: D form. The star is where a group is joined. X2 = CC(C)CCC[C@@H](C)[C@H]1CC[C@H]2[C@@H]3CC=C4C[C@@H](OC(=O)CCOCCOCCOCCOCCOCCOCCOCCOCCOCCOCCOCCOCCNC(=O)C*)CC[C@]4(C)[C@H]3CC[C@]12C; γGlu = O=C(O)[C@H](CCC(=O)[*:2])N[*:1]; Palmitoyl = CCCCCCCCCCCCCCCC(=O)*; Aib = CC(C)(N)C(=O)O

Legend:
[1] = target: T1, hGLP-1R (Homo sapiens, UniProt P43220); assay: cell-based cAMP assay as described in WO2008101017 (Table 11), hGLP-1R
From the text: (§1) This example presents tables showing the in vitro potencies of various peptide analogs at the human GLP-1 receptor (hGLP-1R) and the human glucagon receptor (hGCGR).

[2] = target: T2, hGCGR (Homo sapiens, UniProt P47871); assay: cell-based cAMP assay as described in WO2008101017 (Table 11), hGCGR
From the text: as §1

[3] = target: T1, hGLP-1R; assay: fluorescence cell based cAMP assay, CHO cells stably expressing GLP-1R; set-up: expressed in transfected cells; settings: hGLP-1R EC50, Table 10
Experimental: (§2) We initially screened peptides in fluorescence cell based assays that measure production of cyclic-AMP (cAMP), using CHO cell lines stably expressing either recombinant human GLP-1R or human GCGR. Determination of Mouse and human GLP-1R and GCGR Agonist Activity was essentially as follows. CHO cells stably expressing mouse or human GLP-1R or GCGR were grown in Iscove's Modified Dulbecco's Medium (IMDM), 10% FBS, 1 mM L-glutamine, penicillin-streptomycin (100 μ/mL) and 750 μg G418/mL for three-four days before harvesting using Enzymefree Dissociation Media (EFDM, Specialty Media). […] The plates were held an additional hour at room temperature, then increasing cAMP levels were detected by a decrease in TR-FRET signal as measured in an EnVision counter (PerkinElmer) in comparison to a standard curve of cAMP as per the manufacturer's instructions. Data were analyzed using the linear and nonlinear regression analysis software, GraphPad Prism.
(§3) The in vitro potencies shown in Table 10 or Table 11 were determined from the results of assays that were similar to either the cell-based cAMP assays described herein above (Table 10) or the cell-based cAMP assays described in International Published Application No. WO2008101017, which is incorporated herein in its entirety, in particular the cell-based cAMP assays described therein (Table 11).

[4] = pI of the peptide analogs
[5] = target: T3, GCGR (Mus musculus, UniProt Q61606); assay: in vivo GCGR receptor occupancy competition assay with 125I-glucagon in wild-type mice
T3 construct: from tissue; host or cells: liver of wild-type mice, dosed in vivo

[6] = 14 day chronic infusion food intake and body weight study in DIO mice; assay type: in vivo, mouse; settings: for Cumulative food intake change / Cumulative weight change: 14 day chronic infusion
[7] = intraperitoneal glucose tolerance test (IPGTT) in lean C57BL/6N mice; assay type: in vivo, mouse
[8] = target: T2, hGCGR; assay: ex vivo perfused liver glycogenolysis assay (13C NMR), humanized GCGR mice; settings: at 300 nM
[9] = target: T2, hGCGR; assay: fluorescence cell based cAMP assay, CHO cells stably expressing GCGR; settings: GCGR EC50, Table 4
Experimental: as §2, with “The assay was terminated with the addition of the LANCE kit Detection buffer as per the manufacturer's instructions. The” for “The”
as §3

[10] = hyperglycemic clamp in DIO mice; assay type: in vivo, mouse; settings: ~16 μg/kg/min i.v., last 60 minutes

T1 sequence (P43220 24-463): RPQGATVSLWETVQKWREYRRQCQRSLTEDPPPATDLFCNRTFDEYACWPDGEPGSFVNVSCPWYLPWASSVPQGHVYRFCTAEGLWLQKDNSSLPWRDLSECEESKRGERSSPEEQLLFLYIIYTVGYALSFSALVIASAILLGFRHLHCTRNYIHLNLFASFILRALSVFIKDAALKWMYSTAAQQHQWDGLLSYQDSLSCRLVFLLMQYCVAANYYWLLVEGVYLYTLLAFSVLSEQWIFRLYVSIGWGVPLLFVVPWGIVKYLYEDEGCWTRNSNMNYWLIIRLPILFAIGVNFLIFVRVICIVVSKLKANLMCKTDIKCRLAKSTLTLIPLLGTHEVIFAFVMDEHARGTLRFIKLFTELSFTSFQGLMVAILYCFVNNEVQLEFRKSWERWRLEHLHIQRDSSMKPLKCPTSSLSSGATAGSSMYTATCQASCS
T2 sequence (P47871 26-477): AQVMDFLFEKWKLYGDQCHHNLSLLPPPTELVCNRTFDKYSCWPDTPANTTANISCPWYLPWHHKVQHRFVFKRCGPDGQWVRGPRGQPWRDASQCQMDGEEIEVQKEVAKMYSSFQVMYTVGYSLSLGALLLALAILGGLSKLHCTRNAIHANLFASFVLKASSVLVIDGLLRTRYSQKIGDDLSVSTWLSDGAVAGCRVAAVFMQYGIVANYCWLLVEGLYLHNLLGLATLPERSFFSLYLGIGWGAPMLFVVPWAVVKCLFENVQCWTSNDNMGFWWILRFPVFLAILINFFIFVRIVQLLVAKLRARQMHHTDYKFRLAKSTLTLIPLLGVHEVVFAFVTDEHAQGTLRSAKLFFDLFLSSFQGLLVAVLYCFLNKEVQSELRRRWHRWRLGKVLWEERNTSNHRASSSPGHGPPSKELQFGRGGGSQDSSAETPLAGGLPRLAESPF
T3 sequence (Q61606 27-485): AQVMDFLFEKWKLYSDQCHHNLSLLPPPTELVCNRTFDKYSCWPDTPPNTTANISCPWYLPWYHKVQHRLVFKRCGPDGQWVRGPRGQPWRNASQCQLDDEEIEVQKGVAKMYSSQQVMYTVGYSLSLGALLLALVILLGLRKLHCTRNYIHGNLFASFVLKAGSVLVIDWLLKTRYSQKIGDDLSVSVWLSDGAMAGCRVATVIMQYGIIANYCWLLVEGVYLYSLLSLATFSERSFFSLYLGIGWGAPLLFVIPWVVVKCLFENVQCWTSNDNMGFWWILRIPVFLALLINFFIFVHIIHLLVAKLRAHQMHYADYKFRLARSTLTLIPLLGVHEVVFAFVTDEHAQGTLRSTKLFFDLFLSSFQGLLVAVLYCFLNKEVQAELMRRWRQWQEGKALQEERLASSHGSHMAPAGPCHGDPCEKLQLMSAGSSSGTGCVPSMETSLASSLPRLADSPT

Molecule: CCCCCCCCCCCCCCCC(=O)N[C@@H](CCC(=O)N[C@@H](CCC(=O)NCCCC[C@H](NC(=O)[C@H](CC(=O)O)NC(=O)[C@H](CO)NC(=O)[C@@H](NC(=O)[C@H](Cc1ccccc1)NC(=O)[C@@H](NC(=O)CNC(=O)[C@H](CCC(N)=O)NC(=O)[C@@H](CO)NC(=O)[C@@H](N)Cc1c[nH]cn1)[C@@H](C)O)[C@@H](C)O)C(=O)N[C@@H](CO)C(=O)N[C@@H](CCCCN)C(=O)N[C@@H](Cc1ccc(O)cc1)C(=O)N[C@@H](CC(C)C)C(=O)N[C@@H](CC(=O)O)C(=O)NC(C)(C)C(=O)N[C@@H](CCCNC(=N)N)C(=O)N[C@@H](CCCNC(=N)N)C(=O)N[C@@H](C)C(=O)N[C@@H](CCC(N)=O)C(=O)N[C@@H](CC(=O)O)C(=O)N[C@@H](Cc1ccccc1)C(=O)N[C@H](C(=O)N[C@@H](CCC(N)=O)C(=O)N[C@@H](Cc1c[nH]c2ccccc12)C(=O)N[C@@H](CC(C)C)C(=O)N[C@@H](CCSC)C(=O)N[C@@H](CC(N)=O)C(=O)N[C@H](C(=O)N[C@H](CCCCN)C(=O)N[C@@H](CCC(N)=O)C(=O)O)[C@@H](C)O)C(C)C)C(=O)O)C(=O)O [MM103]
- EC50 [1]: 0.026 nM
- EC50 [2]: 0.005 nM

Molecule: CCCCCCCCCCCCCCCC(=O)N[C@@H](CCC(=O)N[C@@H](CCC(=O)NCCCC[C@H](NC(=O)[C@H](CC(=O)O)NC(=O)[C@H](CO)NC(=O)[C@@H](NC(=O)[C@H](Cc1ccccc1)NC(=O)[C@@H](NC(=O)CNC(=O)[C@H](CCC(N)=O)NC(=O)[C@@H](CO)NC(=O)[C@@H](N)Cc1c[nH]cn1)[C@@H](C)O)[C@@H](C)O)C(=O)N[C@@H](CO)C(=O)N[C@@H](CCCCN)C(=O)N[C@@H](Cc1ccc(O)cc1)C(=O)N[C@@H](CC(C)C)C(=O)N[C@@H](CC(=O)O)C(=O)N[C@@H](CCC(=O)O)C(=O)N[C@@H](CCCNC(=N)N)C(=O)N[C@@H](CCCNC(=N)N)C(=O)N[C@@H](C)C(=O)N[C@@H](CCC(N)=O)C(=O)N[C@@H](CC(=O)O)C(=O)N[C@@H](Cc1ccccc1)C(=O)N[C@H](C(=O)N[C@@H](CCC(N)=O)C(=O)N[C@@H](Cc1c[nH]c2ccccc12)C(=O)N[C@@H](CC(C)C)C(=O)N[C@@H](CCSC)C(=O)N[C@@H](CC(N)=O)C(=O)N[C@H](C(=O)N[C@@H](CCCCN)C(=O)N[C@@H](CCC(N)=O)C(=O)O)[C@@H](C)O)C(C)C)C(=O)O)C(=O)O [MM111] (H-H[dS]QGTFTSDK([γGlu-γGlu-Palmitoyl])SKYLDERRAQDFVQWLMNTKQ-OH)
- EC50 [1]: 0.007 nM
- EC50 [2]: 0.005 nM

Molecule: CSCC[C@H](NC(=O)[C@H](CC(C)C)NC(=O)[C@H](Cc1c[nH]c2ccccc12)NC(=O)[C@H](CCC(N)=O)NC(=O)[C@@H](NC(=O)[C@H](Cc1ccccc1)NC(=O)[C@H](CC(=O)O)NC(=O)[C@@H]1CCCCNC(=O)CC[C@H](NC(=O)[C@H](CC(=O)O)NC(=O)[C@H](CC(C)C)NC(=O)[C@H](Cc2ccc(O)cc2)NC(=O)[C@H](CCCCN)NC(=O)[C@H](CO)NC(=O)[C@H](Cc2ccc(O)cc2)NC(=O)[C@H](CC(=O)O)NC(=O)[C@H](CO)NC(=O)[C@@H](NC(=O)[C@H](Cc2ccccc2)NC(=O)[C@@H](NC(=O)CNC(=O)[C@H](CCC(N)=O)NC(=O)C(C)(C)NC(=O)[C@@H](N)Cc2c[nH]cn2)[C@@H](C)O)[C@@H](C)O)C(=O)N[C@@H](CCCNC(=N)N)C(=O)N[C@@H](CCCNC(=N)N)C(=O)N[C@@H](C)C(=O)N1)C(C)C)C(=O)N[C@@H](CC(N)=O)C(=O)N[C@H](C(=O)N[C@@H](CCCCN)C(=O)N[C@@H](CCC(=O)N[C@@H](CCC(=O)N[C@@H](CSCC(=O)NCCOCCOCCOCCOCCOCCOCCOCCOCCOCCOCCOCCOCCC(=O)O[C@H]1CC[C@@]2(C)C(=CC[C@H]3[C@@H]4CC[C@H]([C@H](C)CCCC(C)C)[C@@]4(C)CC[C@@H]32)C1)C(=O)O)C(=O)O)C(=O)O)[C@@H](C)O [OXM395] (H-H[Aib]QGTFTSDYSKYLDERRAKDFVQWLMNTK[γGlu][γGlu]C(X2)-OH; lactam 16-20; N-terminus assumed)
- EC50 [3]: 0.7 nM
- pI [4]: about 5.4
- pI ([4]; Table 10): 5.4

Now from value to molecule, other results behind:

- GCGR occupancy ([5]; 1.5 mpk): 84%
Molecule: glucagon [reference compound]

- GCGR occupancy ([5]; subcutaneous, dose not given): 0%
- glycogenolysis induced [8]: about 58%
- EC50 [9]: 1630 nM
Molecule: HSEGTFTSDYSKYLDSRRAQDFVQWLMNTKRNRNNIA [OXM-Q3E]
- ΔBW ([6]; 5 mg/kg): −2.4%
- Cumulative food intake change ([6]; 0.5 mg/kg): 215 kcal
- Cumulative weight change ([6]; 0.5 mg/kg): -0.21 g
- Cumulative food intake change ([6]; 5 mg/kg): 207 kcal
- Cumulative weight change ([6]; 5 mg/kg): -0.21 g
- effectiveness at reducing glucose relative to native peptide ([7]; comparison of the minimal effective dose, IPGTT): about 10 fold
- blood glucose excursion in IPGTT ([7]; lean C57BL/6N mice, s.c.): significantly reduced blood glucose excursion in a dose-dependent manner
- GIR0-60 (glucose infusion rate) [10]: 55 ± 4 mg/kg/min
